# Laboratory results published in patent publication US20200055839A1 (priority 2017, published 2020).
# Test system: NL-RLuc virus
# Test: Inhibition of HIV replication (NL-RLuc virus, luciferase readout in MT-2 cells)
# Type: cell-based
# Conditions: Human immunodeficiency virus 1, MT2, 120 h, MT-2 cells infected with NL-RLuc virus, 5 days of incubation, 10% FBS, at least 2 experiments
# Procedure, shortened: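 MT-2 cells infected with NL4-3-derived virus carrying Renilla luciferase in place of part of nef, grown 5 days with serial compound dilutions in RPMI 1640/10% FBS. Virus growth read as luciferase expression. EC50 from median effect equation, at least 2 experiments.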
row,SMILES,EC50 [nM]
1,"COc1c(F)cc(-c2c(CN3CCC4(CCC4)CC3)nc(C)c([C@H](OC(C)(C)C)C(=O)O)c2N2CCC(C)(C)CC2)cc1F [Example 194, (2S)-2-[6-({7-Azaspiro[3.5]nonan-7-yl}methyl)-5-(3,5-difluoro-4-methoxyphenyl)-4-(4,4-dimethylpiperidin-1-yl)-2-methylpyridin-3-yl]-2-(tert-butoxy)acetic acid]",0.6
2,"Cc1cc(F)ccc1CCOc1ccc(-c2cnc(C)c([C@H](OC(C)(C)C)C(=O)O)c2N2CCC(C)(C)CC2)nc1 [Example 286, (S)-2-(tert-Butoxy)-2-(4′-(4,4-dimethylpiperidin-1-yl)-5-(4-fluoro-2-methylphenethoxy)-6′-methyl-[2, 3′-bipyridin]-5′-yl)acetic acid]",1
3,"COc1c(F)cc(-c2c(CN(C)C)nc(C)c([C@H](OC(C)(C)C)C(=O)O)c2N2CCC(C)(C)CC2)cc1F [Example 197, (2S)-2-(tert-Butoxy)-2-[5-(3,5-difluoro-4-methoxyphenyl)-6-[(dimethylamino)methyl]-4-(4,4-dimethylpiperidin-1-yl)-2-methylpyridin-3-yl]acetic acid]",11
4,"Cc1ncc(-c2ccc(F)nc2OCC(C)C)c(N2CCC(C)(C)CC2)c1[C@H](OC(C)(C)C)C(=O)O [Example 435, (2S)-2-tert-Butoxy-2-(4-(4,4-dimethylpiperidin-1-yl)-6′-fluoro-2′-isobutoxy-6-methyl-3, 3′-bipyridin-5-yl)acetic acid]",501
5,"COc1c(F)cc(-c2c(CO)nc(Cl)c([C@H](OC(C)(C)C)C(=O)O)c2N2CCC(C)(C)CC2)cc1F [Example 205, (S)-2-(tert-Butoxy)-2-(2-chloro-5-(3,5-difluoro-4-methoxyphenyl)-4-(4,4-dimethylpiperidin-1-yl)-6-(hydroxymethyl)pyridin-3-yl)acetic acid]",6
6,"Cc1ncc(-c2ccc(OCC(C)C)c(C(F)(F)F)n2)c(N2CCC(C)(C)CC2)c1[C@H](OC(C)(C)C)C(=O)O [Example 275, (S)-2-(tert-Butoxy)-2-(4′-(4,4-dimethylpiperidin-1-yl)-5-isobutoxy-6′-methyl-6-(trifluoromethyl)-[2, 3′-bipyridin]-5′-yl)acetic acid]",8
7,"Cc1nc(NCc2ccccn2)c(-c2ccc(OCCc3ccc(F)cc3)cc2)c(N2CCC(C)(C)CC2)c1[C@H](OC(C)(C)C)C(=O)O [Example 97, (S)-2-(tert-Butoxy)-2-(4-(4,4-dimethylpiperidin-1-yl)-5-(4-(4-fluorophenethoxy)phenyl)-2-methyl-6-((pyridin-2-ylmethyl)amino)pyridin-3-yl)acetic acid]",5
8,"Cc1nc(OCCc2ccc(F)cc2)ccc1-c1cnc(C)c([C@H](OC(C)(C)C)C(=O)O)c1N1CCC(C)(C)CC1 [Example 260, (S)-2-(tert-Butoxy)-2-(4-(4,4-dimethylpiperidin-1-yl)-6′-(4-fluorophenethoxy)-2′,6-dimethyl-[3, 3′-bipyridin]-5-yl)acetic acid]",11
9,"Cc1nc(Nc2ccncc2F)c(-c2ccc(OCCc3ccc(F)cc3)cc2)c(N2CCC(C)(C)CC2)c1[C@H](OC(C)(C)C)C(=O)O [Example 93, (S)-2-(tert-Butoxy)-2-(4-(4,4-dimethylpiperidin-1-yl)-5-(4-(4-fluorophenethoxy)phenyl)-6-((3-fluoropyridin-4-yl)amino)-2-methylpyridin-3-yl)acetic acid]",12
10,"CCCCOc1ccc(-c2cnc(C)c([C@H](OC(C)(C)C)C(=O)O)c2N2CCC(C)(C)CC2)nc1 [Example 313, (2S)-2-(tert-butoxy)-2-[5-butoxy-4′-(4,4-dimethylpiperidin-1-yl)-6′-methyl-[2,3′-bipyridine]-5′-yl]acetic acid]",1
11,"Cc1ncc(-c2ccc(OCCc3ccccc3)c(F)c2)c(N2CCC(C)(C)CC2)c1[C@H](OC(C)(C)C)C(=O)O [Example 258, (S)-2-(tert-Butoxy)-2-(4-(4,4-dimethylpiperidin-1-yl)-5-(3-fluoro-4-phenethoxyphenyl)-2-methylpyridin-3-yl)acetic acid]",1
12,"Cc1cccc(Cl)c1COc1ccc(-c2cnc(C)c([C@H](OC(C)(C)C)C(=O)O)c2N2CCC(C)(C)CC2)nc1 [Example 283, (S)-2-(tert-Butoxy)-2-(5-((2-chloro-6-methylbenzyl)oxy)-4′-(4,4-dimethylpiperidin-1-yl)-6′-methyl-[2, 3′-bipyridin]-5′-yl)acetic acid]",3
13,"Cc1ncc(-c2ccc(NCCc3ccc(F)cc3)nc2)c(N2CCC(C)(C)CC2)c1[C@H](OC(C)(C)C)C(=O)O [Example 110, (S)-2-(tert-Butoxy)-2-(4-(4,4-dimethylpiperidin-1-yl)-6′-((4-fluorophenethyl)amino)-6-methyl-[3, 3′-bipyridin]-5-yl)acetic acid]",2
14,"Cc1nc(Nc2cncnc2)c(-c2ccc(OCCc3ccc(F)cc3)cc2)c(N2CCC(C)(C)CC2)c1[C@H](OC(C)(C)C)C(=O)O [Example 66, (S)-2-(tert-Butoxy)-2-(4-(4,4-dimethylpiperidin-1-yl)-5-(4-(4-fluorophenethoxy)phenyl)-2-methyl-6-(pyrimidin-5-ylamino)pyridin-3-yl)acetic acid]",2
15,"Cc1ncc(-c2ccc(O)cn2)c(N2CCC(C)(C)CC2)c1[C@H](OC(C)(C)C)C(=O)O [Example 287, (S)-2-(tert-Butoxy)-2-(4′-(4,4-dimethylpiperidin-1-yl)-5-hydroxy-6′-methyl-[2, 3′-bipyridin]-5′-yl)acetic acid]",379
16,"Cc1ccc(CCOc2ccc(-c3cnc(C)c([C@H](OC(C)(C)C)C(=O)O)c3N3CCC(C)(C)CC3)nc2)cc1F [Example 332, (2S)-2-(tert-butoxy)-2-[4′-(4,4-dimethylpiperidin-1-yl)-5-[2-(3-fluoro-4-methylphenyl)ethoxy]-6′-methyl-[2,3′-bipyridine]-5′-yl]acetic acid]",0.5
17,"CC1(C)CCN(c2c(-c3ccc(OCCc4ccc(F)cc4)c(F)c3)c(CN3CCC4(CCC4)CC3)nc(Cl)c2[C@H](OC(C)(C)C)C(=O)O)CC1 [Example 210, (S)-2-(6-((7-Azaspiro[3.5]nonan-7-yl)methyl)-2-chloro-4-(4,4-dimethylpiperidin-1-yl)-5-(3-fluoro-4-(4-fluorophenethoxy)phenyl)pyridin-3-yl)-2-(tert-butoxy)acetic acid]",2
18,"CCCOc1ccc(CCOc2ccc(-c3cnc(C)c([C@H](OC(C)(C)C)C(=O)O)c3N3CCC(C)(C)CC3)nc2)cc1 [Example 325, (2S)-2-(tert-butoxy)-2-[4′-(4,4-dimethylpiperidin-1-yl)-6′-methyl-5-[2-(4-propoxyphenyl)ethoxy]-[2,3′-bipyridine]-5′-yl]acetic acid]",3
19,"COc1ccccc1COc1ccc(-c2cnc(C)c([C@H](OC(C)(C)C)C(=O)O)c2N2CCC(C)(C)CC2)nc1 [Example 357, (2S)-2-(tert-butoxy)-2-[4′-(4,4-dimethylpiperidin-1-yl)-5-[(2-methoxyphenyl)methoxy]-6′-methyl-[2,3′-bipyridine]-5′-yl]acetic acid]",0.8
20,"Cc1cc(-c2cnc(C)c([C@H](OC(C)(C)C)C(=O)O)c2N2CCC(C)(C)CC2)ncc1OCCc1ccc(F)cc1 [Example 248, (S)-2-(tert-Butoxy)-2-(4′-(4,4-dimethylpiperidin-1-yl)-5-(4-fluorophenethoxy)-4, 6′-dimethyl-[2, 3′-bipyridin]-5′-yl)acetic acid]",1
